Measurements from US20170306409A1, “CANCER PATIENT SELECTION FOR ADMINISTRATION OF WNT SIGNALING INHIBITORS USING RNF43 MUTATION STATUS” (NOVARTIS AG, priority 2012, published 2017).

Key:
Assay in all cases: Axin2 qPCR assay (pathway inhibition)
Format in all cases: cell-based, human
Axin2, KP1-N = tested on: Axin2, KP1-N
Description: (§1) For reverse transcription and quantitative PCR (qPCR), total RNA was extracted from cells or tumors using the RNeasy Plus Mini Kit (Qiagen). 1 μg of RNA were reverse transcribed with Taqman Reverse Transcription Reagents (Applied Biosystems) according to the manufacturer's instruction. Quantitative PCR was performed in 12 μl reactions consisting of 0.6 μl of 20× Taqman probe and PCR primer mix, 6 μl 2× Taqman FAST Advanced Master Mix (Applied Biosystems), and 5.4 μl diluted cDNA template. The thermocycling conditions utilized were 20 seconds at 95° C., followed by 40 cycles of 1 second at 95° C. and 20 seconds at 60° C. All experiments were performed in quadruplicates. Gene expression analysis was performed using the comparative ΔΔCT method and normalized with the housekeeping gene GUSB or 18S. The Taqman probes were purchased from Applied Biosystems.

Axin2, L3.3 = tested on: Axin2, L3.3
Description: as §1

Axin2, Panc03.27 = tested on: Axin2, Panc03.27
Description: as §1

Axin2, MIA CaPa-2 = tested on: Axin2, MIA CaPa-2
Description: as §1

Axin2, Panc05.04 = tested on: Axin2, Panc05.04
Description: as §1

Axin2, PANC-1 = tested on: Axin2, PANC-1
Description: as §1

Axin2, KP-1NL = tested on: Axin2, KP-1NL
Description: as §1

Axin2, T3M4 = tested on: Axin2, T3M4
Description: as §1

Axin2, Panc10.05 = tested on: Axin2, Panc10.05
Description: as §1

Axin2, KP4 = tested on: Axin2, KP4
Description: as §1

Axin2, Panc04.03 = tested on: Axin2, Panc04.03
Description: as §1

Axin2, CFPAC-1 = tested on: Axin2, CFPAC-1
Description: as §1

Axin2, PK45H = tested on: Axin2, PK45H
Description: as §1

Axin2, HPAFII = tested on: Axin2, HPAFII
Description: as §1

Axin2, PK59 = tested on: Axin2, PK59
Description: as §1

Axin2, BxPC3 = tested on: Axin2, BxPC3
Description: as §1

Axin2, SUIT-2 = tested on: Axin2, SUIT-2
Description: as §1

Axin2, DanG = tested on: Axin2, DanG
Description: as §1

Axin2, Capan-2 = tested on: Axin2, Capan-2
Description: as §1

Axin2, SU86.86 = tested on: Axin2, SU86.86
Description: as §1

Axin2, QGP-1 = tested on: Axin2, QGP-1
Description: as §1

Axin2, PSN-1 = tested on: Axin2, PSN-1
Description: as §1

Axin2, PaTu-8988T = tested on: Axin2, PaTu-8988T
Description: as §1

Axin2, KP2 = tested on: Axin2, KP2
Description: as §1

Axin2, PL45 = tested on: Axin2, PL45
Description: as §1

Axin2, KP3 = tested on: Axin2, KP3
Description: as §1

SMILES: Cc1cc(-c2ncc(CC(=O)Nc3ccc(-c4cnccn4)cn3)cc2C)ccn1 [LGK974, 2-[5-methyl-6-(2-methylpyridin-4-yl)pyridin-3-yl]-N-[5-(pyrazin-2-yl)pyridin-2-yl]acetamide]
- Pathway inhibition in Axin2 qPCR assay (Axin2, KP1-N): Yes
- Pathway inhibition in Axin2 qPCR assay (Axin2, L3.3): No
- Pathway inhibition in Axin2 qPCR assay (Axin2, Panc03.27): Yes
- Pathway inhibition in Axin2 qPCR assay (Axin2, MIA CaPa-2): No
- Pathway inhibition in Axin2 qPCR assay (Axin2, Panc05.04): Yes
- Pathway inhibition in Axin2 qPCR assay (Axin2, PANC-1): Yes
- Pathway inhibition in Axin2 qPCR assay (Axin2, KP-1NL): Yes
- Pathway inhibition in Axin2 qPCR assay (Axin2, T3M4): No
- Pathway inhibition in Axin2 qPCR assay (Axin2, Panc10.05): Yes
- Pathway inhibition in Axin2 qPCR assay (Axin2, KP4): No
- Pathway inhibition in Axin2 qPCR assay (Axin2, Panc04.03): No
- Pathway inhibition in Axin2 qPCR assay (Axin2, CFPAC-1): No
- Pathway inhibition in Axin2 qPCR assay (Axin2, PK45H): No
- Pathway inhibition in Axin2 qPCR assay (Axin2, HPAFII): Yes
- Pathway inhibition in Axin2 qPCR assay (Axin2, PK59): Yes
- Pathway inhibition in Axin2 qPCR assay (Axin2, BxPC3): Yes
- Pathway inhibition in Axin2 qPCR assay (Axin2, SUIT-2): Yes
- Pathway inhibition in Axin2 qPCR assay (Axin2, DanG): No
- Pathway inhibition in Axin2 qPCR assay (Axin2, Capan-2): Yes
- Pathway inhibition in Axin2 qPCR assay (Axin2, SU86.86): Yes
- Pathway inhibition in Axin2 qPCR assay (Axin2, QGP-1): No
- Pathway inhibition in Axin2 qPCR assay (Axin2, PSN-1): Yes
- Pathway inhibition in Axin2 qPCR assay (Axin2, PaTu-8988T): Yes
- Pathway inhibition in Axin2 qPCR assay (Axin2, KP2): Yes
- Pathway inhibition in Axin2 qPCR assay (Axin2, PL45): No
- Pathway inhibition in Axin2 qPCR assay (Axin2, KP3): Yes
